Data published in patent US20160220710A1, “COMPOSITIONS AND METHODS FOR DELIVERING PHARMACEUTICAL AGENTS” (THE REGENTS OF THE UNIVERSITY OF MICHIGAN, priority 2015, published 2016).

Assays:
[1] = Baseline vital signs of 8 wk CFZ-treated mice; assay type: in vivo
Method: Clofazimine (CFZ, Sigma-Aldrich, C8895) was prepared in sesame oil (Shirakiku, Japan, or Roland, China) and Powdered Lab Diet 5001 (PMI International, Inc., St. […] Baik et al., 2011, supra). Control mice were fed with the same diet without CFZ. The animal protocol was approved by the University of Michigan's Animal Care and Use Committee in accordance with the National Institutes of Health guidelines (UCUCA #PRO0005111). The general health status of each PBS/LPS-instilled mice was monitored by measuring body weight and rectal temperature (Microprobe Thermometer, Physitemp Instruments, Clifton, N.J.), and cardiopulmonary function (arterial oxygen saturation, respiratory rate, heart rate and pulse distention) was monitored using MouseOx with a collar clip sensor ([…] Sciences Corp, Oakmont, Pa.) as previously described (Lax S et al., (2014) BMJ open […], et al. (2014) PLoS One 9(6):e98336). In brief, one day before IT instillations (D-1) the hair around the neck of each mouse was removed using Nair (Church & Dwight, Princeton, N.J.) to enable data acquisition using the collar clip sensor. The next day (D 0), immediately prior to the first LPS/PBS dose, and every 24 h afterwards until day 6 (D 6), the body weight, temperature and MouseOx readings were recorded. MouseOx data was acquired by very brief anesthesia of the mouse using 5% isoflurane to facilitate the placement of the collar clip sensor. The mouse was then placed in an enclosed chamber with ambient light and allowed to acclimatize for 5 min at which point the animals had recovered normal activities and physiological readings.

[2] = test system: LPS-induced acute lung injury; experiment: LPS-induced acute lung injury; assay type: in vivo, mice
Method: Since C57BL/6 mice are relatively resistant towards a single dose of intratracheal (IT) LPS instillation (Matute-Bello G et al., 2008 Am J Physiol Lung Cell Mol Physiol 295(3):L379-99), two IT injections of LPS (16 mg/kg; 50 μl) were administered, one on day 0 and the second on day 3. Briefly, 8 wk CFZ-treated and control mice were anesthetized using intraperitoneal injections of xylazine […]. Under direct visualization of the vocal cords using an otoscope, either LPS or an equivalent volume of PBS in a 1 mL syringe attached to an oral gavage needle (22 G) was instilled into the lungs via the oral route. The mouse was then placed in a temperature-controlled cage (37° C.) for recovery from anesthesia.
The general health status of each PBS/LPS-instilled mice was monitored by measuring body weight and rectal temperature (Microprobe Thermometer, Physitemp Instruments, Clifton, N.J.), and cardiopulmonary function (arterial oxygen saturation, respiratory rate, heart rate and pulse distention) was monitored using MouseOx with a collar clip sensor (Starr Life Sciences Corp, Oakmont, Pa.) as previously described (Lax S et al., (2014) BMJ open Respir Res 1(1):e000014; Nayak S, et al. (2014) PLoS One 9(6):e98336). In brief, one day before IT instillations (D-1) the hair around the neck of each mouse was removed using Nair (Church & Dwight, Princeton, N.J.) to enable data acquisition using the collar clip sensor. The next day (D 0), immediately prior to the first LPS/PBS dose, and every 24 h afterwards until day 6 (D 6), the body weight, temperature and MouseOx readings were recorded. MouseOx data was acquired by very brief anesthesia of the mouse using 5% isoflurane to facilitate the placement of the collar clip sensor. The mouse was then placed in an enclosed chamber with ambient light and allowed to acclimatize for 5 min at which point the animals had recovered normal activities and physiological readings. Arterial oxygen saturation, breath rate, heart rate and pulse distention measurements were then simultaneously recorded for 6 min (15 readings/sec), and any errors caused by motion during recording were excluded, after which the mean value of each parameter was used for further data analysis.
To objectively assess LPS-induced mortality, a multi-parametric scoring system that relied on the daily changes in vital signs associated with inflammatory injury progression and mortality which included arterial oxygen saturation was used (Lax et al., 2014, supra), body weight and temperature (Toth L A (2000) ILAR J 41(2):72-79; Nemzek et al., (2004) Humane endpoints in shock research. Shock 21(1):17-25). First, the percent change from baseline (D 0) in arterial oxygen saturation, body weight, and temperature in each mouse caused by IT instillation of PBS/LPS were measured and calculated daily until day 6 post-instillation. […] These mice were immediately euthanized with ketamine/xylazine and the bronchoalveolar lavage (BAL) and lungs were harvested for cellular and biochemical analysis (see below).
PBS/LPS-instilled CFZ- or control mice were euthanized by exsanguination while deeply anesthetized with an intraperitoneal injection of ketamine/xylazine. The trachea was surgically exposed and cannulated with an 18 G needle and the lungs were lavaged by instilling 1 ml DPBS (Life Technologies) containing 0.5 mM EDTA (Sigma). The retrieved BAL was then centrifuged (10 min at 400×g, 4° C.), and the supernatant was frozen (−80° C.), while the cell pellets were resuspended in 1 ml RPMI 1640 media (Life Technologies). To count total cells, the cells were stained with Trypan blue and counted using a hemocytometer. To distinguish cell types, an aliquot of the cells were dried on glass slides and stained with Diff Stain kit (IMEB Inc, San Marcos, Calif.) according to the manufacturer's instructions. […]

[3] = mice; cited from earlier work

## CC(C)/N=c1\cc2n(-c3ccc(Cl)cc3)c3ccccc3nc-2cc1Nc1ccc(Cl)cc1 [CFZ, 3-(p-chloroanilino)-10-(p-chlorophenyl)-2, 10-dihydro-2-isopropyliminophenazine]
[1]
  arterial oxygen saturation, higher than control diet-treated: 1.5%
  behavioral signs of sickness: did not display any behavioral signs of sickness
  body temperature: unaffected
  breathing rate, lower than control diet-treated: 10.7%
  heart rate, lower than control diet-treated: 9.3%
  pulse distention, lower than control diet-treated: 16.9%
  weight, less than control diet-treated: 6.7%
[1]; n = 16
  Arterial O2 Saturation (% ± S.D.): 99.01 ± 0.24%
  Body Temperature (° C. ± S.D): 35.52 ± 0.76 °C
  Breathing rate (brpm ± S.D.): 154.29 ± 19.43 brpm
  Heart rate (bpm ± S.D.): 573.94 ± 85.28 bpm
  Pulse distention (μm ± S.D): 425.57 ± 52.32 μm
  Weight (g ± S.D): 24.39 ± 1.92 g
[2]; 8 wk CFZ-treated, two IT LPS 16 mg/kg
  survival rate: 92%
[2]; after LPS
  TNFα and IL-1RA expression: reduced TNFα and IL-1RA expression after LPS
  arterial oxygen levels vs control mice: significantly higher arterial oxygen levels at day 5 and day 6
  cell count in bronchioalveolar lavage (BAL): significantly less cell count in bronchioalveolar lavage
  number of mice losing more than 15% weight: 1
[2]; after LPS instillation
  lung injury vs control mice: notably less lung injury
[2]; after second LPS injection (day 4)
  body temperature drop vs control mice: more resistant to temperature drop after the second injection
[2]; after the second LPS injection
  heart rate, breathing rate and pulse distention vs control mice: less reduction in heart rate, breathing rate and pulse distention
[3]
  pharmacokinetic half-life t1/2: ~170 h
